# Measurements: ChEMBL document CHEMBL1201862, “PubChem BioAssay data set” (2004)
#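 48-hour exposure; five concentrations; linearly interpolated endpoints. At the GI50, growth is halved.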 The source made the active and inactive calls. No stated cut-off is given here; in the data, active = GI50 up to about 1.1 µM and inactive = higher.
# Tests used:
# Test in all cases: inhibition of tumour cell growth, NCI panel, 48 h
# 786-0 = tested on: 786-0
# A549 = tested on: A549
# ACHN = tested on: ACHN
# HCT-15 = tested on: HCT-15
# HOP-62 = tested on: HOP-62
# IGROV-1 = tested on: IGROV-1
# K562 = tested on: K562
# KM12 = tested on: KM12
# LOX IMVI = tested on: LOX IMVI
# M14 = tested on: M14
# MDA-N = tested on: MDA-N
# NCI-H522 = tested on: NCI-H522
# OVCAR-8 = tested on: OVCAR-8
# SF-268 = tested on: SF-268
# SNB-19 = tested on: SNB-19
# SR = tested on: SR
# COLO 205 = tested on: COLO 205
# HL-60 = tested on: HL-60
# MCF7 = tested on: MCF7
# SF-539 = tested on: SF-539
SMILES,GI50 (786-0),GI50 (A549),GI50 (ACHN),GI50 (HCT-15),GI50 (HOP-62),GI50 (IGROV-1),GI50 (K562),GI50 (KM12),GI50 (LOX IMVI),GI50 (M14),GI50 (MDA-N),GI50 (NCI-H522),GI50 (OVCAR-8),GI50 (SF-268),GI50 (SNB-19),GI50 (SR),GI50 (COLO 205),GI50 (HL-60),GI50 (MCF7),GI50 (SF-539)
c1ccc2sc(SCSc3nc4ccccc4s3)nc2c1,82.4 µM (inactive),81.3 µM (inactive),74.8 µM (inactive),20.6 µM,> 100 µM (inactive),> 100 µM (inactive),31.1 µM (inactive),> 100 µM (inactive),47.2 µM (inactive),> 100 µM (inactive),76.2 µM (inactive),57.8 µM (inactive),> 100 µM (inactive),> 100 µM (inactive),> 100 µM (inactive),7.08 µM (inactive),,,,
COc1ccc2nc(NCN3C(=O)c4ccccc4C3=O)sc2c1,> 100 µM (inactive),> 100 µM (inactive),> 100 µM (inactive),> 100 µM,> 100 µM (inactive),> 100 µM (inactive),> 100 µM (inactive),> 100 µM (inactive),> 100 µM (inactive),> 100 µM (inactive),> 100 µM (inactive),> 100 µM (inactive),> 100 µM (inactive),> 100 µM (inactive),> 100 µM (inactive),,> 100 µM (inactive),> 100 µM (inactive),> 100 µM (inactive),> 100 µM (inactive)
Oc1c2c(nc3cc4c(cc13)OCO4)-c1ccccc1CCC2,> 50 µM (inactive),> 50 µM (inactive),> 50 µM (inactive),> 50 µM,> 50 µM (inactive),30.2 µM (inactive),> 50 µM (inactive),> 50 µM (inactive),43.3 µM (inactive),49.3 µM (inactive),18.9 µM (inactive),> 50 µM (inactive),48.5 µM (inactive),> 50 µM (inactive),> 50 µM (inactive),12.3 µM (inactive),> 50 µM (inactive),,26.5 µM (inactive),> 50 µM (inactive)
CCOC(=O)C1(C#N)C2(C#N)C(N)=NC(ON=C(C)C)(ON=C(C)C)C12C#N (centres undefined),> 100 µM (inactive),> 100 µM (inactive),> 100 µM (inactive),> 100 µM,> 100 µM (inactive),> 100 µM (inactive),> 100 µM (inactive),> 100 µM (inactive),> 100 µM (inactive),> 100 µM (inactive),> 100 µM (inactive),> 100 µM (inactive),> 100 µM (inactive),> 100 µM (inactive),> 100 µM (inactive),> 100 µM (inactive),> 100 µM (inactive),> 100 µM (inactive),> 100 µM (inactive),
O=C1NC(=O)c2ccc([N+](=O)[O-])c3cccc1c23,14 µM (inactive),20.8 µM (inactive),19 µM (inactive),5.31 µM,20 µM (inactive),15.9 µM (inactive),10.9 µM (inactive),,,14.8 µM (inactive),12.4 µM (inactive),2.01 µM (inactive),12.6 µM (inactive),24.4 µM (inactive),19.5 µM (inactive),,14.9 µM (inactive),,11.2 µM (inactive),17.9 µM (inactive)
CCc1n[nH]c(=O)n1CCCCCCCCn1c(CC)n[nH]c1=O,> 100 µM (inactive),> 100 µM (inactive),> 100 µM (inactive),> 100 µM,> 100 µM (inactive),> 100 µM (inactive),> 100 µM (inactive),> 100 µM (inactive),> 100 µM (inactive),> 100 µM (inactive),> 100 µM (inactive),> 100 µM (inactive),> 100 µM (inactive),> 100 µM (inactive),> 100 µM (inactive),> 100 µM (inactive),> 100 µM (inactive),,> 100 µM (inactive),> 100 µM (inactive)
c1ccc2c(c1)nc1ccccn12,> 100 µM (inactive),> 100 µM (inactive),> 100 µM (inactive),> 100 µM,> 100 µM (inactive),> 100 µM (inactive),> 100 µM (inactive),> 100 µM (inactive),,> 100 µM (inactive),> 100 µM (inactive),,> 100 µM (inactive),> 100 µM (inactive),> 100 µM (inactive),> 100 µM (inactive),> 100 µM (inactive),> 100 µM (inactive),> 100 µM (inactive),> 100 µM (inactive)
CCOC(=O)c1c2ccccc2n2c(=O)n(C)nnc12,89.3 µM (inactive),> 100 µM (inactive),> 84.1 µM (inactive),> 100 µM,12.4 µM (inactive),> 100 µM (inactive),> 100 µM (inactive),> 100 µM (inactive),> 100 µM (inactive),> 100 µM (inactive),> 100 µM (inactive),,> 100 µM (inactive),58.9 µM (inactive),> 100 µM (inactive),,> 100 µM (inactive),1.53 µM (inactive),> 100 µM (inactive),> 56.2 µM (inactive)
Nn1c(SCC(=O)NCc2ccccc2)nc2ccccc2c1=O,55.6 µM (inactive),31.3 µM (inactive),40.6 µM (inactive),67.8 µM,,53.3 µM (inactive),27.8 µM (inactive),> 100 µM (inactive),49 µM (inactive),36.6 µM (inactive),38.9 µM (inactive),41.7 µM (inactive),40.6 µM (inactive),38.2 µM (inactive),67 µM (inactive),21.1 µM (inactive),48.5 µM (inactive),,52.1 µM (inactive),> 100 µM (inactive)
COC(=O)C(Nc1ccc(OC)cc1)c1ccccc1 (centres undefined),> 100 µM (inactive),> 100 µM (inactive),> 100 µM (inactive),> 100 µM,> 100 µM (inactive),> 100 µM (inactive),> 100 µM (inactive),> 100 µM (inactive),> 100 µM (inactive),> 100 µM (inactive),> 100 µM (inactive),> 100 µM (inactive),> 100 µM (inactive),> 100 µM (inactive),> 100 µM (inactive),> 100 µM (inactive),> 100 µM (inactive),,> 100 µM (inactive),> 100 µM (inactive)
CCOP(=O)(OCC)[C@H]1OC(C)(C)O[C@@H]1CO,> 100 µM (inactive),> 100 µM (inactive),> 100 µM (inactive),> 100 µM,> 100 µM (inactive),> 100 µM (inactive),,> 100 µM (inactive),> 100 µM (inactive),> 100 µM (inactive),> 100 µM (inactive),> 100 µM (inactive),> 100 µM (inactive),> 100 µM (inactive),> 100 µM (inactive),,> 100 µM (inactive),> 100 µM (inactive),> 100 µM (inactive),> 100 µM (inactive)
CCO/C=N/C1=C(C#N)C(c2ccc(OC)c(OC)c2)c2c(-c3ccccc3)nn(-c3ccccc3)c2O1 (centres undefined),13.6 µM (inactive),18.3 µM (inactive),13.2 µM (inactive),5.11 µM,17.7 µM (inactive),3.16 µM (inactive),6.68 µM (inactive),8.02 µM (inactive),15.4 µM (inactive),21.4 µM (inactive),18.7 µM (inactive),10.6 µM (inactive),19.2 µM (inactive),18.5 µM (inactive),15.9 µM (inactive),,13.1 µM (inactive),3.21 µM (inactive),16.6 µM (inactive),8.67 µM (inactive)
COc1cc(/C=C2\C[C@H]3[C@@H]4CCc5cc(OCCN6CCCC6)ccc5[C@H]4CC[C@]3(C)C2=O)cc(OC)c1OC,1.85 µM (inactive),1.69 µM (inactive),1.79 µM (inactive),1.68 µM,1.77 µM (inactive),1.57 µM (inactive),1.62 µM (inactive),1.69 µM (inactive),1.69 µM (inactive),1.67 µM (inactive),1.67 µM (inactive),,1.63 µM (inactive),,2.3 µM (inactive),0.314 µM (active),1.48 µM (inactive),,1.65 µM (inactive),1.61 µM (inactive)
COc1ccc(C2CC3(c4ccccc4)ON=C(c4ccccc4)N3c3ccccc3S2)cc1 (centres undefined),> 100 µM (inactive),> 100 µM (inactive),> 100 µM (inactive),> 100 µM,> 100 µM (inactive),> 100 µM (inactive),,> 100 µM (inactive),> 100 µM (inactive),> 100 µM (inactive),> 100 µM (inactive),> 100 µM (inactive),> 100 µM (inactive),> 100 µM (inactive),,,> 100 µM (inactive),,> 100 µM (inactive),> 100 µM (inactive)
C=CCc1[nH]c2c(OCc3ccccc3)cc(N(CC=C)C(C)=O)cc2c1C,14.2 µM (inactive),13.4 µM (inactive),12.8 µM (inactive),12.9 µM,17.1 µM (inactive),14.4 µM (inactive),10.1 µM (inactive),13.3 µM (inactive),12.5 µM (inactive),10.1 µM (inactive),14.4 µM (inactive),13 µM (inactive),13.2 µM (inactive),12.2 µM (inactive),12.8 µM (inactive),,15.2 µM (inactive),12.8 µM (inactive),12.4 µM (inactive),16.3 µM (inactive)
CC(C)C1=CC23CCC4C(C)(C(=O)O)CCCC4(C)C2CC1C1C(=O)N(c2ccc(C(=O)O)cc2)C(=O)C13 (centres undefined),> 100 µM (inactive),> 100 µM (inactive),> 100 µM (inactive),> 100 µM,> 100 µM (inactive),> 100 µM (inactive),> 100 µM (inactive),> 100 µM (inactive),> 100 µM (inactive),> 100 µM (inactive),> 100 µM (inactive),> 100 µM (inactive),> 100 µM (inactive),> 100 µM (inactive),> 100 µM (inactive),,> 100 µM (inactive),> 100 µM (inactive),> 100 µM (inactive),> 100 µM (inactive)
